Source: US8961680B2, “Solvent formulations” (TBF Environmental Technology Inc., priority 2013, dated 2015)

Assays:
[1] = Hansen solubility parameters of blends, single components, MEK and acetone; conditions: MEK, acetone, δ^2 = δD^2 + δP^2 + δH^2
Text: In some embodiments, a solvent composition according to the present disclosure includes an acetate ester, such as MA, EA, or TBAc, in combination with additional reagents to increase dispersion and decrease hydrogen bonding and/or to decrease the polarity of the composition. […] Accordingly, in some embodiments, a solvent composition according to the present disclosure may be formulated according to Hansen solubility parameters (HSP) (Hansen, 1999) and may have: a dispersion parameter (δD) between about 7.7 and about 8.5; a polarity parameter (δP) between about 4 and about 5.2; and a hydrogen bonding parameter (δH) between about 3.0 and about 3.6. Such parameters result in a Hansen Solubility Parameter (δ MPa) of about 9.0 to about 10.4, where δ^2=δD^2+δP^2+δH^2.
In alternative embodiments, a solvent composition according to the present disclosure may have: a dispersion parameter (δD) between about 7.5 and about 8; a polarity parameter (δP) between about 3 and about 4; and a hydrogen bonding parameter (δH) between about 3.2 and about 4. Such parameters result in a Hansen Solubility Parameter (δ MPa) of about 8.68 to about 9.79, where δ^2=δD^2+δP^2+δH^2. In some embodiments, a solvent composition according to the present disclosure includes a composition with HSP values similar to those of acetone. […]

[2] = single components, MEK, acetone; cited from earlier work
[3] = reference solvents; cited from earlier work
[4] = published value; cited from earlier work
[5] = Evaporation rate relative to n-butyl acetate (=1); assay type: physicochemical; conditions: Example 2
Text: Evaporation rates can be expressed relative to the evaporation of n-butyl acetate (=1), as a standard.

[6] = cited from earlier work

| Structure (SMILES) | δ (MPa) [1] | δD (dispersion) [2] | δH (hydrogen bonding) [2] | δP (polarity) [2] | flash point [3] | published MEK ER [4] | evaporation rate [5] | solubility in water ([6]; room temperature) | stability ([6]; strong aqueous bases or aqueous acids) |
| --- | --- | --- | --- | --- | --- | --- | --- | --- | --- |
| CC(C)=O [Acetone, acetone, reference compound] | 9.929 MPa | 7.7 | 3.5 | 5.2 | −20 °C |  |  |  |  |
| COC(=O)OC [DMC, dimethyl carbonate] |  | 8.5 | 1.9 | 4.7 |  |  |  |  |  |
| CCOC(C)=O [Ethyl acetate, ethyl acetate] |  | 7.7 | 3.5 | 2.3 |  |  |  |  |  |
| CCC(C)=O [MEK, methyl ethyl ketone, reference compound] |  | 7.82 | 2.49 | 4.4 | −9 °C | 4.0 | 3.8 |  |  |
| COC(C)=O [Methyl acetate, methyl acetate] |  | 7.58 | 3.72 | 3.52 | −4 °C |  |  | 25% | not stable |
| CC1COC(=O)O1 (stereo not drawn) [PC, propylene carbonate] |  | 9.8 | 2 | 8.8 |  |  |  |  |  |
| FC(F)(F)c1ccc(Cl)cc1 [PCBTF, parachlorobenzotrifluoride] |  | 8.8 | 1.9 | 2.9 |  |  |  |  |  |
| CC(=O)OC(C)(C)C [TBA, tert-butyl acetate] | 7.765 MPa | 7 | 2.9 | 1.7 |  |  |  |  |  |
